Values quoted from earlier work in patent publication US10487314B2, “Inhibition of serotonin expression in gut enteroendocrine cells results in conversion to insulin-positive cells” (priority 2014, dated 2019).

How the values were obtained:
5-HT2B = 5-HT2B (Homo sapiens, UniProt P41595)
ALDH1A3 mRNA = settings: human prostate

Chain of 5-HT2B (P41595 whole entry, species assumed): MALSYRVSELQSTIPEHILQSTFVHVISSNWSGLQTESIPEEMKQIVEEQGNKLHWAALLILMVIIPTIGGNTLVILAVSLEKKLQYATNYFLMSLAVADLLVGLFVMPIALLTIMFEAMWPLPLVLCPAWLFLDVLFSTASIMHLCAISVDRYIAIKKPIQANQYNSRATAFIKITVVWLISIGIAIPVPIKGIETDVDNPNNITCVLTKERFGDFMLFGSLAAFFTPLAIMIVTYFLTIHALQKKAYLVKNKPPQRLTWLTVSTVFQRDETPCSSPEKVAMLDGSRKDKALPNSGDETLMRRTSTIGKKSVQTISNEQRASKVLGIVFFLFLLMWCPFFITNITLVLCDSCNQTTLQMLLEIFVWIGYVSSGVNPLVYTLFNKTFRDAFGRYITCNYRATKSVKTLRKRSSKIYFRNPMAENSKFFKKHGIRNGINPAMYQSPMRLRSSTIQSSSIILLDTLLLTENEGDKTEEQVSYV

Structure (SMILES): Cc1cc([N+](=O)[O-])c(N2CCN(Cc3ccccc3)CC2)cc1N [EGIS-7625]
- selectivity over 5-HT2A (5-HT2B): high selectivity

Structure (SMILES): CC(C)c1cc(-c2ccc(F)c3ccccc23)nc(N)n1 [RS-127,445]
- oral bioavailability: orally bioavailable
- affinity for 5-HT2B (5-HT2B): high affinity
- subtype selectivity (5-HT2B; 5-HT2B versus other subtypes): 1000 ×

Structure (SMILES): C[C@]12CCC(=O)C[C@@H]1CC[C@@H]1[C@@H]2CC[C@]2(C)[C@@H](O)CC[C@@H]12 [Androgen dihydrotestosterone (DHT), dihydrotestosterone]
- increase in ALDH1A3 mRNA levels (ALDH1A3 mRNA): 4 fold
